Test results from ChEMBL document CHEMBL1130676, “Aryl ketones as novel replacements for the C-terminal amide bond of succinyl hydroxamate MMP inhibitors” (Bioorg Med Chem Lett, 1998).
pIC50: −log10 of the molar value.

Tests used:
[1] = Half life was measured in rat at dose of 30 mg/kg by po administration; format: ADME, organism-based; set-up: dose 30 mg/kg, route oral; settings: in vivo
[2] = Bioavailability in monkey after po administration of 10 mg/kg dose; format: ADME, organism-based; settings: primates, in vivo
[3] = Half life was measured in monkey at dose of 10 mg/kg by po administration; format: ADME, organism-based; set-up: dose 10 mg/kg, route oral; settings: primates, in vivo
[4] = Bioavailability in rat after po administration of 30 mg/kg dose; format: ADME, organism-based; settings: in vivo
Interstitial collagenase = biological target: T1, Interstitial collagenase (Homo sapiens, UniProt P03956); assay: In vitro inhibitory activity against matrix metalloprotease 1 isolated from the culture medium of human skin fibroblasts induced with PMA
T1 sequence (P03956 whole entry): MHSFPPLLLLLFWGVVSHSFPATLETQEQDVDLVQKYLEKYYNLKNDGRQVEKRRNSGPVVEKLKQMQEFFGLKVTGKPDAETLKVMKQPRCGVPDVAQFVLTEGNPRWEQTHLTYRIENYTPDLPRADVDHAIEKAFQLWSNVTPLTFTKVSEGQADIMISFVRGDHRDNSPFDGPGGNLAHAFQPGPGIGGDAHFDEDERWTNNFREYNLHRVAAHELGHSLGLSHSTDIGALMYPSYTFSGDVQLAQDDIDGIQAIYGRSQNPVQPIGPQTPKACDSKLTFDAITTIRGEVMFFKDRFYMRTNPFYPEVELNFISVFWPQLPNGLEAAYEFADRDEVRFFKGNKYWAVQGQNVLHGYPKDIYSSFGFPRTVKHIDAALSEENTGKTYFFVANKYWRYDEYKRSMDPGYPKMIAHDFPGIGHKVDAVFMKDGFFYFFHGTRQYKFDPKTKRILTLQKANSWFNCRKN

[5] = biological target: T2, 72 kDa type IV collagenase (Homo sapiens, UniProt P08253); assay: In vitro inhibitory activity against matrix metalloprotease 2 isolated from human HT1080 fibrosarcoma cells induced with TNF
T2 sequence (P08253 whole entry): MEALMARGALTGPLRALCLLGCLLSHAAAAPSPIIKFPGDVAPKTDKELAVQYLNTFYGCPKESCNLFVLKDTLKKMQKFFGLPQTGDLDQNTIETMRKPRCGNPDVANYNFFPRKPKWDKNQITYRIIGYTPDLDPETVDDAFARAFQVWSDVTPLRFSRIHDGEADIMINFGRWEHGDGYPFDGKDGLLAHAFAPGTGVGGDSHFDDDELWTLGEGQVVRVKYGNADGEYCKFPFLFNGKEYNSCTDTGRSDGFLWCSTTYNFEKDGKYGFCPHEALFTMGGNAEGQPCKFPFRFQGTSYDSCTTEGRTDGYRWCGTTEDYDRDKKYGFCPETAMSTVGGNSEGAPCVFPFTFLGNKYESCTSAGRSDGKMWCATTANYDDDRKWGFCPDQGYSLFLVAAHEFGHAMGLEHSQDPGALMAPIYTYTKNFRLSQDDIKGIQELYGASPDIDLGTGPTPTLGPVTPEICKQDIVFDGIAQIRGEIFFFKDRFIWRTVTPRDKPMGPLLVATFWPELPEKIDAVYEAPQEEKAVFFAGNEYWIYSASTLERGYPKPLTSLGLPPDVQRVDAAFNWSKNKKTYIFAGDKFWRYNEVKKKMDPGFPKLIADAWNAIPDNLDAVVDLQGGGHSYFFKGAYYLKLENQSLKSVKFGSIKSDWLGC

Matrilysin = biological target: T3, Matrilysin (Homo sapiens, UniProt P09237); assay: In vitro inhibitory activity against human recombinant matrix metalloprotease 7
T3 sequence (P09237 whole entry): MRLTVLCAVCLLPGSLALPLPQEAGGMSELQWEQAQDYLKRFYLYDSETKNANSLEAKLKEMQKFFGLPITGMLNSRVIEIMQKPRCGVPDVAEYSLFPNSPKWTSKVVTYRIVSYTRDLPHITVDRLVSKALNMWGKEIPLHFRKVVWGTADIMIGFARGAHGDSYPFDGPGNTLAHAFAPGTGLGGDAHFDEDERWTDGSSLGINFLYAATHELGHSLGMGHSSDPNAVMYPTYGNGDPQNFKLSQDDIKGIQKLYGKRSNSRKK

Stromelysin-1 [6] = biological target: T4, Stromelysin-1 (Homo sapiens, UniProt P08254); assay: Inhibition of human recombinant matrix metalloprotease 3 (MMP3)
T4 sequence (P08254 whole entry): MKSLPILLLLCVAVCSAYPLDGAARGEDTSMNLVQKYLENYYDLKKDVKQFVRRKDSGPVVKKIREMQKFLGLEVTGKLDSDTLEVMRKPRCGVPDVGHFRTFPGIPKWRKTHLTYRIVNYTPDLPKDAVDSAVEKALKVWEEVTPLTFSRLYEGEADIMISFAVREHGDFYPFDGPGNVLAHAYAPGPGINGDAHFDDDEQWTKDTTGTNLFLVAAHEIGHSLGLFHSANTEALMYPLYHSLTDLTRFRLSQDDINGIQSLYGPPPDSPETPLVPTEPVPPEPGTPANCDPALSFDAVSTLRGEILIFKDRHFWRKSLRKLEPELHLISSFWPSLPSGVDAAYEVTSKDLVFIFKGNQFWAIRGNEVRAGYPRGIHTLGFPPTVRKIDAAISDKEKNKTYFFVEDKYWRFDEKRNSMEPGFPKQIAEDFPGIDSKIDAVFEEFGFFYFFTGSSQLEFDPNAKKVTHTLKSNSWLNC

[7] = biological target: T2, 72 kDa type IV collagenase; assay: Inhibition of matrix metalloprotease 2 (MMP2) of human HT1080 fibrosarcoma cells induced with TNF
Stromelysin-1 [8] = biological target: T4, Stromelysin-1; assay: In vitro inhibitory activity against human recombinant matrix metalloprotease 3
[9] = Oral bioavailability in monkey (dose 10 mg/kg); format: ADME, organism-based; settings: primates, in vivo
[10] = Half life was measured in rat at dose of 30 mg/kg by iv administration; format: ADME, organism-based; set-up: dose 30 mg/kg, route intravenous; settings: in vivo

Structure (SMILES)	pIC50 (Interstitial collagenase)	pIC50 [5]	pIC50 (Matrilysin)	pIC50 (Stromelysin-1 [8])	also measured
C=CCC(C(=O)NO)C(CC(C)C)C(=O)N[C@@H](Cc1ccccc1)C(=O)c1c[nH]c2ccccc12 (single isomer, unassigned)					half-life [1]: 87 min; bioavailability [2]: 12%; half-life [3]: 1200 min; bioavailability [4]: 7%
CC(C)CC(C(=O)N[C@@H](Cc1ccccc1)C(=O)c1c[nH]c2ccccc12)C(O)C(=O)NO (single isomer, unassigned)	8.30	9.22	8.96		
C=CCC(C(=O)NO)C(CC(C)C)C(=O)N[C@@H](Cc1ccccc1)C(=O)c1nccs1 (single isomer, unassigned)			6.66		pIC50 (Stromelysin-1 [6]): 6.44; pIC50 [7]: 5.96
CC(C)C[C@H]1C(=O)N[C@H](C(=O)c2ccccc2)Cc2ccc(cc2)OCCCC[C@@H]1C(=O)NO	7.89	8.02	8.48	8.05	half-life [3]: 900 min; bioavailability [9]: 33%
C=CCC(C(=O)NO)C(CC(C)C)C(=O)N[C@@H](Cc1ccccc1)C(=O)c1ccccc1 (single isomer, unassigned)	8.00	8.47	8.44		
C=CCC(C(=O)NO)C(CC(C)C)C(=O)N[C@@H](Cc1ccccc1)C(=O)c1ncco1 (single isomer, unassigned)	8.57	8.14	8.38	8.74	
C=CCC(C(=O)NO)C(CC(C)C)C(=O)N[C@@H](Cc1ccccc1)C(C)=O (single isomer, unassigned)		7.66	7.35		
C=CCC(C(=O)NO)C(CC(C)C)C(=O)N[C@@H](Cc1ccccc1)C(=O)c1nc2ccccc2[nH]1 (single isomer, unassigned)	6.74	6.96	7.17	7.27	
C=CCC(C(=O)NO)C(CC(C)C)C(=O)N[C@@H](Cc1ccccc1)C(=O)c1cn(C)c2ccccc12 (single isomer, unassigned)	8.33	7.64	7.54	7.44	
CNC(=O)[C@@H](NC(=O)C(CC(C)C)C(O)C(=O)NO)C(C)(C)C (single isomer, unassigned)					half-life [3]: 1620 min; bioavailability [9]: 15%
CC(C)C[C@H]1C(=O)N[C@H](C(=O)c2c[nH]c3ccccc23)Cc2ccc(cc2)OCCCCC[C@@H]1C(=O)NO	8.32	8.21	8.51	8.29	
CC(C)C[C@H]1C(=O)N[C@H](C(=O)c2ccc[nH]2)Cc2ccc(cc2)OCCCC[C@@H]1C(=O)NO	8.72	8.14	8.38	8.14	
C=CCC(C(=O)NO)C(CC(C)C)C(=O)N[C@H](C(=O)c1c[nH]c2ccccc12)C(C)(C)C (single isomer, unassigned)	8.92	8.80	9.11		
CNC(=O)[C@H](Cc1ccccc1)NC(=O)[C@H](CC(C)C)[C@H](CSc1cccs1)C(=O)NO [BATIMASTAT]			8.62		
CC(C)C[C@H](CC(=O)NO)C(=O)N[C@@H](Cc1ccccc1)C(=O)c1c[nH]c2ccccc12	8.29	9.00	8.37		
C=CCC(C(=O)NO)C(CC(C)C)C(=O)N[C@@H](Cc1ccccc1)C(=O)CC (single isomer, unassigned)	7.40	7.48	7.41	7.09	
CNC(=O)[C@@H]1Cc2ccc(cc2)OCCCCC[C@H](C(=O)NO)[C@@H](CC(C)C)C(=O)N1			8.21	8.59	
CC(C)C[C@H]1C(=O)N[C@H](C(=O)c2ccc(S(C)(=O)=O)cc2)Cc2ccc(cc2)OCCCC[C@@H]1C(=O)NO	7.22	8.07	8.24	8.01	
C=CCC(C(=O)NO)C(CC(C)C)C(=O)N[C@@H](Cc1ccccc1)C(=O)c1ccc[nH]1 (single isomer, unassigned)	8.59	8.96	8.92		
CC(C)C[C@H]1C(=O)N[C@H](C(=O)c2ccccc2)Cc2ccc(cc2)OCCCCC[C@@H]1C(=O)NO	8.04	8.41	8.66		
C=CCC(C(=O)NO)C(CC(C)C)C(=O)N[C@@H](Cc1ccccc1)C(=O)c1cccnc1 (single isomer, unassigned)	7.85	8.07	8.07	8.00	
CC(C)CC(C(=O)N[C@H](C(=O)c1c[nH]c2ccccc12)C(C)(C)C)C(O)C(=O)NO (single isomer, unassigned)	9.59	9.42	9.52		half-life [3]: 720 min; bioavailability [9]: 10%
C=CCC(C(=O)NO)C(CC(C)C)C(=O)N[C@@H](Cc1ccccc1)C(=O)c1cccs1 (single isomer, unassigned)		8.19	7.89	8.49	
C=CCC(C(=O)NO)C(CC(C)C)C(=O)N[C@@H](Cc1ccccc1)C(=O)NC (single isomer, unassigned)			7.96		half-life [10]: 21 min; bioavailability [4]: 0%
C=CCC(C(=O)NO)C(CC(C)C)C(=O)N[C@@H](Cc1ccccc1)C(=O)c1cc[nH]c1 (single isomer, unassigned)	8.21	8.57	8.10	8.18	
CC(C)C[C@H]1C(=O)N[C@H](C(=O)c2ccc(C(C)(C)C)cc2)Cc2ccc(cc2)OCCCC[C@@H]1C(=O)NO	6.57	7.04	7.40	6.96	
CNC(=O)[C@@H]1Cc2ccc(cc2)OCCCC[C@H](C(=O)NO)[C@@H](CC(C)C)C(=O)N1		8.25		8.40	
CC(C)C[C@H]1C(=O)N[C@H](C(=O)c2ccc(CO)cc2)Cc2ccc(cc2)OCCCC[C@@H]1C(=O)NO	8.30	8.29	8.82	8.47	
